Patent US7795281B2, “Optically active dihydropyridine derivative” (Daiichi Sankyo Company, Limited, priority 2002, dated 2010)

Assays:
[1] = test system: male spontaneously hypertensive rats; experiment: Blood pressure lowering action in hypertensive rats; type: in vivo, rat
Protocol: Blood Pressure Lowering Action in Hypertensive Rats
Cannulas for measuring blood pressure and administering drug were inserted into the inguinal artery and inguinal vein, respectively, of male spontaneously hypertensive rats age 25 to 29 weeks followed by intravenous administration of a compound under anesthesia and measurement of blood pressure over time for the course of 120 minutes.
The results of comparing the racemic form (20 μg/kg) and R form (10 μg/kg) are shown in Table 2, while the results of comparing the R form (3 μg/kg, 10 μg/kg) and the S form (1000 μg/kg) in a different series of experiments are shown in Table 3.

L calcium channel = target: T1, L calcium channel (Sus scrofa, UniProt A0A8W4FNC0); experiment: Receptor binding experiment using porcine myocardial microsomes (3H-nitrendipine); conditions: for IC50 / Ki: porcine myocardial microsomes, average of two experiments; for IC50: 3H-nitrendipine 0.1 nM, read-out: IC50 (50% inhibitory concentration of specific binding); for Ki: Ki=IC50/(1+[L]/Kd), read-out: Ki (inhibition constant)
T1 construct: from tissue; host or cells: porcine myocardium (microsome fraction)
T1 sequence (A0A8W4FNC0 1-2067): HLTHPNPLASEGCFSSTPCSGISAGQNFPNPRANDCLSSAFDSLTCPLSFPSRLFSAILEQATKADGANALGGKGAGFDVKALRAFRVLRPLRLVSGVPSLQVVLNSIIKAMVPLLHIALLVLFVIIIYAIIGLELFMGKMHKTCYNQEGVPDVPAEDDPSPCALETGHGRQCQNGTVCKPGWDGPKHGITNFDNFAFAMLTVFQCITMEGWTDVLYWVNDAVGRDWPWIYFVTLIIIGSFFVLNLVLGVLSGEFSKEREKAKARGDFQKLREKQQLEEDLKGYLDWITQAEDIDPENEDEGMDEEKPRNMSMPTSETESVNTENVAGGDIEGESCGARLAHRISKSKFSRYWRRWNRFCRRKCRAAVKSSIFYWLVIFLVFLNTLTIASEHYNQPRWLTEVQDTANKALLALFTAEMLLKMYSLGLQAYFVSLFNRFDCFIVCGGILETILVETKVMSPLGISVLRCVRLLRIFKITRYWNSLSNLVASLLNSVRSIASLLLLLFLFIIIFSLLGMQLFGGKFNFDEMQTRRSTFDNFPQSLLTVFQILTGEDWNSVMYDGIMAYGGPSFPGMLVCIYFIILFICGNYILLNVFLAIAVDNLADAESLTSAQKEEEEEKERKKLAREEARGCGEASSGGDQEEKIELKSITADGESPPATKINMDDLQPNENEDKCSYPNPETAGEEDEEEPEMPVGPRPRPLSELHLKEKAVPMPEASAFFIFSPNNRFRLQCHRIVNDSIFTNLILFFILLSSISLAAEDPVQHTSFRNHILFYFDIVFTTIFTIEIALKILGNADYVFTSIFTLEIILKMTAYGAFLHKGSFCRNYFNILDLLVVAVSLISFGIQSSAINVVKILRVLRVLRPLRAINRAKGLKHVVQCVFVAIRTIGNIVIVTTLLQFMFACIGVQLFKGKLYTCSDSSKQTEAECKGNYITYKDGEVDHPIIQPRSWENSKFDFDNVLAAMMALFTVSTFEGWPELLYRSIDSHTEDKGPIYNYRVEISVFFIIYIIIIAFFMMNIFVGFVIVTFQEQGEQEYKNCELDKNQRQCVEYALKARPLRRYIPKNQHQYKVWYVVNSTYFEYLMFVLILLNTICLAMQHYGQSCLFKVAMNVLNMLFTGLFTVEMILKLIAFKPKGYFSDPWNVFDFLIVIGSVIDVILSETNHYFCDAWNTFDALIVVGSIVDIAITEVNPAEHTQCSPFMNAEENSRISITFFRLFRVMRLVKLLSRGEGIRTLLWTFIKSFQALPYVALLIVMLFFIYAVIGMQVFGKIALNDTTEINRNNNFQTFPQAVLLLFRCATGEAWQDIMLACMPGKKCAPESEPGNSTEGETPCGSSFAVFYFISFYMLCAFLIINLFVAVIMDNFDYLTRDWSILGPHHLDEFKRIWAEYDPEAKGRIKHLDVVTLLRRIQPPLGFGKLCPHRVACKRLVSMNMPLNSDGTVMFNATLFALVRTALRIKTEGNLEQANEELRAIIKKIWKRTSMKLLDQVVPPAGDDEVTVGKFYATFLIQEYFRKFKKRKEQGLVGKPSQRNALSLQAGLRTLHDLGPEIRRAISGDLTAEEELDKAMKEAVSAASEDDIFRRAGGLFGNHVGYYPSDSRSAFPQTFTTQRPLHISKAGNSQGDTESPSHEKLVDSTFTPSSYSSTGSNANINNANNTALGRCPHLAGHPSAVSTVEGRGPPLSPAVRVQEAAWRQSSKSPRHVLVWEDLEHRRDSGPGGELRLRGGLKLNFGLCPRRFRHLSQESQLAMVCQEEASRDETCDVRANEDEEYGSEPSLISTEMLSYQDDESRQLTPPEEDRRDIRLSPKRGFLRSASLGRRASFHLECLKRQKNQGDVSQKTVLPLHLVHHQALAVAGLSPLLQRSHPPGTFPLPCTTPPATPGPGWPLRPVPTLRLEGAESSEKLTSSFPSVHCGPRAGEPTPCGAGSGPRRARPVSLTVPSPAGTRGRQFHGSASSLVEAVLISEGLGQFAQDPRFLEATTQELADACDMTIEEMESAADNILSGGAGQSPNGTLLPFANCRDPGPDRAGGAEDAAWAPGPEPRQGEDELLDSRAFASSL
Protocol: Receptor Binding Experiment Using Porcine Myocardial Microsomes
Porcine myocardial microsomes were used for the source of the L calcium channel, while ^3H-nitrendipine was used for the ligand of the L calcium channel. The microsomes (0.2 mg protein/ml), ^3H-nitrendipine (0.1 nM) and test drug (racemic form, R form or S form) were allowed to react at room temperature for 30 minutes in HEPES buffer (50 mM, pH 7.4) followed by measurement of the ^3H-nitrendipine that bound to the microsome fraction with a liquid scintillation counter. The count in the presence of 10 μM non-labeled nitrendipine (amount of non-specific binding) was then subtracted to determine the amount of specific binding. The relationship between the concentration and inhibition rate of specific binding was approximated to a logistic curve for each test drug to determine IC50 (50% inhibitory concentration of specific binding). The Ki value (inhibition constant) for each test drug was then determined from the following formula using the Kd (dissociation constant) of nitrendipine as separately determined from a Scatchard plot: Ki=IC50/(1+[L]/Kd) (wherein [L] is the concentration of ^3H-nitrendipine).

CC1=C(C(=O)OC(C)C)[C@H](c2cccc([N+](=O)[O-])c2)C(C(=O)OC2CN(C(c3ccccc3)c3ccccc3)C2)=C(N)N1 [S form, (S)-2-amino-1,4-dihydro-6-methyl-4-(3-nitrophenyl)-3,5-pyridinedicarboxylic acid 3-(1-diphenylmethylazetidin-3-yl) ester 5-isopropyl ester]
Change in blood pressure ([1]; 1000 μg/kg i.v., 0 minutes, Table 3 (different series of experiments), mean ± standard error): 0 ± 0 mmHg
Change in blood pressure ([1]; 1000 μg/kg i.v., 10 minutes, Table 3 (different series of experiments), mean ± standard error): −5 ± 1 mmHg
Change in blood pressure ([1]; 1000 μg/kg i.v., 30 minutes, Table 3 (different series of experiments), mean ± standard error): −18 ± 6 mmHg
Change in blood pressure ([1]; 1000 μg/kg i.v., 60 minutes, Table 3 (different series of experiments), mean ± standard error): −29 ± 10 mmHg
Change in blood pressure ([1]; 1000 μg/kg i.v., 90 minutes, Table 3 (different series of experiments), mean ± standard error): −36 ± 7 mmHg
Change in blood pressure ([1]; 1000 μg/kg i.v., 120 minutes, Table 3 (different series of experiments), mean ± standard error): −35 ± 4 mmHg
IC50 (L calcium channel): 700 nM
Ki (L calcium channel): 460 nM

CC1=C(C(=O)OC(C)C)C(c2cccc([N+](=O)[O-])c2)C(C(=O)OC2CN(C(c3ccccc3)c3ccccc3)C2)=C(N)N1 (racemic) [Racemic form, (±)-2-amino-1,4-dihydro-6-methyl-4-(3-nitrophenyl)-3,5-pyridinedicarboxylic acid 3-(1-diphenylmethylazetidin-3-yl) ester 5-isopropyl ester, reference compound]
Change in blood pressure ([1]; 20 μg/kg i.v., 0 minutes, Table 2, mean ± standard error): 0 ± 0 mmHg
Change in blood pressure ([1]; 20 μg/kg i.v., 10 minutes, Table 2, mean ± standard error): −21 ± 2 mmHg
Change in blood pressure ([1]; 20 μg/kg i.v., 30 minutes, Table 2, mean ± standard error): −35 ± 4 mmHg
Change in blood pressure ([1]; 20 μg/kg i.v., 60 minutes, Table 2, mean ± standard error): −42 ± 6 mmHg
Change in blood pressure ([1]; 20 μg/kg i.v., 90 minutes, Table 2, mean ± standard error): −45 ± 6 mmHg
Change in blood pressure ([1]; 20 μg/kg i.v., 120 minutes, Table 2, mean ± standard error): −48 ± 7 mmHg
IC50 (L calcium channel): 3.1 nM
Ki (L calcium channel): 2.1 nM

CC1=C(C(=O)OC(C)C)[C@@H](c2cccc([N+](=O)[O-])c2)C(C(=O)OC2CN(C(c3ccccc3)c3ccccc3)C2)=C(N)N1 [R form, (R)-2-amino-1,4-dihydro-6-methyl-4-(3-nitrophenyl)-3,5-pyridinedicarboxylic acid 3-(1-diphenylmethylazetidin-3-yl) ester 5-isopropyl ester]
Change in blood pressure ([1]; 3 μg/kg i.v., 0 minutes, Table 3 (different series of experiments), mean ± standard error): 0 ± 0 mmHg
Change in blood pressure ([1]; 3 μg/kg i.v., 10 minutes, Table 3 (different series of experiments), mean ± standard error): −3 ± 3 mmHg
Change in blood pressure ([1]; 3 μg/kg i.v., 30 minutes, Table 3 (different series of experiments), mean ± standard error): −14 ± 3 mmHg
Change in blood pressure ([1]; 3 μg/kg i.v., 60 minutes, Table 3 (different series of experiments), mean ± standard error): −28 ± 3 mmHg
Change in blood pressure ([1]; 3 μg/kg i.v., 90 minutes, Table 3 (different series of experiments), mean ± standard error): −34 ± 5 mmHg
Change in blood pressure ([1]; 3 μg/kg i.v., 120 minutes, Table 3 (different series of experiments), mean ± standard error): −34 ± 10 mmHg
Change in blood pressure ([1]; 10 μg/kg i.v., 0 minutes, Table 2, mean ± standard error): 0 ± 0 mmHg
Change in blood pressure ([1]; 10 μg/kg i.v., 0 minutes, Table 3 (different series of experiments), mean ± standard error): 0 ± 0 mmHg
Change in blood pressure ([1]; 10 μg/kg i.v., 10 minutes, Table 2, mean ± standard error): −17 ± 4 mmHg
Change in blood pressure ([1]; 10 μg/kg i.v., 10 minutes, Table 3 (different series of experiments), mean ± standard error): −23 ± 5 mmHg
Change in blood pressure ([1]; 10 μg/kg i.v., 30 minutes, Table 2, mean ± standard error): −28 ± 5 mmHg
Change in blood pressure ([1]; 10 μg/kg i.v., 30 minutes, Table 3 (different series of experiments), mean ± standard error): −36 ± 6 mmHg
Change in blood pressure ([1]; 10 μg/kg i.v., 60 minutes, Table 2, mean ± standard error): −43 ± 7 mmHg
Change in blood pressure ([1]; 10 μg/kg i.v., 60 minutes, Table 3 (different series of experiments), mean ± standard error): −49 ± 11 mmHg
Change in blood pressure ([1]; 10 μg/kg i.v., 90 minutes, Table 2, mean ± standard error): −45 ± 7 mmHg
Change in blood pressure ([1]; 10 μg/kg i.v., 90 minutes, Table 3 (different series of experiments), mean ± standard error): −54 ± 8 mmHg
Change in blood pressure ([1]; 10 μg/kg i.v., 120 minutes, Table 2, mean ± standard error): −47 ± 6 mmHg
Change in blood pressure ([1]; 10 μg/kg i.v., 120 minutes, Table 3 (different series of experiments), mean ± standard error): −61 ± 6 mmHg
Blood pressure lowering activity, potency relative to S form ([1]; R form vs S form): roughly 300 times
Blood pressure lowering activity, potency relative to racemic form ([1]; R form vs racemic form): roughly twice as potent
L calcium channel inhibitory activity, potency relative to S form (L calcium channel; R form vs S form): roughly 500 times
L calcium channel inhibitory activity, potency relative to racemic form (L calcium channel; R form vs racemic form): more than twice as potent
IC50 (L calcium channel): 1.3 nM
Ki (L calcium channel): 0.88 nM
